Data published in patent US12458629B2, “Method for treating nonsense mutation mediated duchenne muscular dystrophy in pediatric patients” (PTC THERAPEUTICS, INC., priority 2019, dated 2025).
Where “and” joins values, the source holds several entries; their conditions need not be identical. Identical values can stand only once. Like-named read-outs stand apart in the source and are kept apart here.

Columns and labels:
[1] = Ataluren plasma pharmacokinetics, NCT02819557 phase 2 open-label trial (LC-MS/MS); type: in vivo, human; conditions: for Cmax (0-6 hr) / concentration at 6 h / AUC(0-t) / Tmax: oral 10, 10, 20 mg/kg TID; for concentration at 6 h / AUC(0-t) / Tmax: male, human, plasma; for concentration at 6 h: oral, read-out: Ctrough-6 hr; for AUC(0-t) / Tmax: po, 20 mg/kg; for Tmax: read-out: tmax (0-6 hr)
Protocol: A total dose of 40 mg/kg/day study drug was administered as three divided doses per day. The first dose administered was: 10 mg/kg in the morning, the second dose administered was 10 mg/kg at midday, and the third dose administered was 20 mg/kg in the evening.
Evaluations included blood sampling for gene sequencing, blood sampling for ataluren PK, vital signs, height, weight, physical exam, hematology urinalysis, 12-lead ECG, palatability questionnaire, adverse events (AEs), concomitant medications and non-DMD-related Aes. For single-dose and steady-state plasma concentrations, blood samples were collected pre-dose and at 1, 2, 4, 6, 8, and 10 hours post-dose on Days 1 (Visit 2) and 28 (Visit 3). Ataluren plasma concentrations were determined using a validated liquid chromatography with tandem mass spectrometry (LC-MS/MS) method, with a lower limit of quantification (LOQ) of 0.500 μg/mL. Efficacy evaluations included TFTs and the NSAA, adapted as described below.
Observed values of plasma concentrations for ataluren were summarized at each visit and time point by dose level. Descriptive statistics (n, mean, standard deviation [SD], coefficient of variation [CV %], median, minimum, and maximum) and geometric means and their CV % were calculated. PK parameters (AUC0-6, AUC0-10, Cmax (0-6 hr) Ctrough (0-6 hr), t max (0-6 hr), accumulation ratio (AR) (AUC), AR (Cmax)) were derived using actual sampling and dosing times. Concentrations below the LOQ were set to zero for the calculation of non-compartmental analysis (NCA) parameters.

[2] = system: pediatric patients having nmDMD; experiment: Timed function tests (TFTs), NCT02819557; type: in vivo, human; conditions: for decrease in mean time taken to descend 4 stairs (SD): 40 mg/kg/day
Protocol: For timed function tests (TFTs), results summarizing the baseline values (Study Day 1), post-baseline values, and the change from baseline values were analyzed separately for each of the 4 tests, including time taken to i). walk/run 10 meters, ii). Climb 4 stairs, iii). Descend 4 stairs, and iv). Stand from a supine position. The 10 m walk/run test was assessed once. If the time taken to perform a TFT exceeded 30 seconds or if a subject could not perform a TFT due to disease progression, a value of 30 seconds was set for the summary analysis. The time values in seconds were summarized using descriptive statistics: n, mean, SD, median, range, and 95% confidence intervals. Observed values, and changes from baseline in TFTs were summarized accordingly for the evaluable population.

[3] = system: pediatric patients having nmDMD; experiment: North Star Ambulatory Assessment (NSAA), 16-, 8- and 3-item, NCT02819557; type: in vivo, human
Description: Certain assessments on the NSAA 16-point scale were revised to reflect developmental stages for a pediatric patient population, e.g., “Lifts Head” was removed from the total, Items 3 and 8 on the NSAA scales were further revised to detect changes in the pediatric younger age group.^18,22 The same analysis was used for all subjects (n=14).
However, all patients were included in the baseline and week 52 assessments.

[4] = Effective plasma concentration range for maximum benefit by 6 minute walking distance (6 MWD); set-up: species or system human; conditions: in vivo
Protocol: As used herein, the term “therapeutically effective amount” refers to that amount of ataluren administered to a patient based on patient weight that is sufficient to attain an average plasma concentration in a range of at least about 1 μg/mL to about 20 μg/mL during a 24 hour time period.

boys with nmDMD = conditions: boys about seven to about 16 years of age with nmDMD, Phase 3 NCT01826487; cited from earlier work
[5] = Day 1 and Day 28, most subjects
[6] = Week 0 - Day 1, arithmetic mean, n=14
[7] = Week 4 - Day 28, arithmetic mean, n=14
[8] = Week 4 - Day 28 vs Day 1, arithmetic mean, n=14

time of peak concentration post-morning dose (first peak) [1, 5]: approximately 2 hours
time of peak concentration post-morning dose (second peak, 2 hours post midday dose) [1, 5]: ~8 h
drug accumulation across doses ([1]; Day 28 vs Day 1): no apparent accumulation
Cmax (0-6 hr) [1, 6]: 15.95 µg/mL
Cmax (0-6 hr) [1, 7]: 12.54 µg/mL
AR AUC0-6 (accumulation ratio) [1, 8]: 0.99
AR Cmax (accumulation ratio) [1, 8]: 1.02
concentration at 6 h [1, 6]: 9120 ng/mL
concentration at 6 h [1, 7]: 5430 ng/mL
AUC(0-t) ([1]; Week 0 - Day 1, arithmetic mean, n=14, boys ≥2 to <5 years with nmDMD, read-out: AUC0-6): 53000 ng·h/mL
AUC(0-t) ([1]; Week 0 - Day 1, arithmetic mean, n=14, read-out: AUC0-10): 102000 ng·h/mL
Tmax [1, 6]: 3.84 h
AUC(0-t) ([1]; Week 4 - Day 28, arithmetic mean, n=14, read-out: AUC0-6): 43600 ng·h/mL
AUC(0-t) ([1]; Week 4 - Day 28, arithmetic mean, n=14, read-out: AUC0-10): 82100 ng·h/mL
Tmax [1, 7]: 2.72 h
time post morning dose at which the effective plasma concentration range is typically found [4]: ≤ 2 h
Structure (SMILES): O=C(O)c1cccc(-c2noc(-c3ccccc3F)n2)c1 [ataluren, 3-[5-(2-fluoro-phenyl)-[1,2,4]oxadiazol-3-yl]-benzoic acid]
plasma levels and safety in the younger population relative to older children ([1]; ≥2 to <5 yrs vs ≥5 yrs nmDMD populations): similar
Timed Function Test assessments, change from baseline ([2]; all four TFTs over the 52-week study period): overall improvements from baseline
mean reduction from baseline, 10 m walk/run time ([2]; week 28, 13 patients): 0.8 (±1.54) seconds
mean percent improvement (SD), time to climb 4 stairs ([2]; week 28 vs baseline): 9.10 (±29.63) percent and 9.10 (29.630) percent
mean percent improvement (SD), time to descend 4 stairs ([2]; week 28 vs baseline): 7.17 (±26.43) percent and 7.17 (26.433) percent
mean percent improvement, 10 m walk/run ([2]; week 28 vs baseline): 8.35% and 8.35 (22.778) %
reduction in mean time to climb 4 stairs ([2]; week 28 vs baseline, N=13): 1.8 (±4.85) seconds
decrease in mean time taken to descend 4 stairs (SD) ([2]; week 28 vs mean baseline of 7.1 seconds, 12 patients): 0.6 (±1.93) seconds
mean reduction from baseline, 10 m walk/run time ([2]; week 52, 14 patients): 1.1 (±1.35) seconds
mean percent improvement (SD), time to climb 4 stairs ([2]; week 52 vs baseline): 23.36 (±26.25) percent and 23.36 (26.249) percent
mean percent improvement (SD), time to descend 4 stairs ([2]; week 52 vs baseline): 24.22 (±28.32) percent and 24.22 (28.322) percent
mean percent improvement, 10 m walk/run ([2]; week 52 vs baseline): 14.54% and 14.54 (14.862) %
reduction in mean time to climb 4 stairs ([2]; week 52 vs baseline, N=14): 2.6 (±5.0) seconds
decrease in mean time taken to descend 4 stairs (SD) ([2]; week 52 vs mean baseline of 7.5 seconds, 13 patients): 2.2 (±2.58) seconds
mean improvement from baseline in stand from supine position assessment, week 28 compared with week 52 ([2]; weeks 28 (N=13) and 52 (N=14)): similar
3-item NSAA score, mean (SD) ([3]; Week 28, N=13): 5.8 (±0.38)
8-item NSAA score, mean (SD) ([3]; Week 28, N=13): 12.1 (+3.12)
16-item NSAA total score, mean (SD) ([3]; Week 28, N=13): 19.8 (±6.17) and 19.8 (6.17)
16-item NSAA total score, percent improvement over baseline ([3]; Week 28, N=13): 24.88% and 24.88 (27.203) %
3-item NSAA score, percent improvement over baseline ([3]; Week 28 vs baseline 5.4): 10.26%
8-item NSAA score, percent improvement over baseline ([3]; Week 28 vs baseline 10.5): 15.14%
16-item NSAA total score, improvement over baseline ([3]; Week 28 vs baseline 16.2, N=13): 3.5 (±3.43) points
3-item NSAA score, mean (SD) ([3]; Week 52, N=14): 5.6 (+0.63)
8-item NSAA score, mean (SD) ([3]; Week 52, N=14): 12.8 (+3.12)
16-item NSAA total score, mean (SD) ([3]; Week 52, N=14): 21.5 (±6.48) and 21.5 (6.48)
16-item NSAA total score, percent improvement over baseline ([3]; Week 52, N=14): 36.63% and 36.63 (29.956) %
3-item NSAA score, percent improvement over baseline ([3]; Week 52 vs baseline 5.4): 6.31%
8-item NSAA score, percent improvement over baseline ([3]; Week 52 vs baseline 10.5): 23.31%
16-item NSAA total score, improvement over baseline ([3]; Week 52 vs baseline 16.0, N=14): 5.5 (±4.43) points
tolerability (boys with nmDMD): generally well tolerated
